Laboratory results: PubChem BioAssay AID463204 (Broad Institute, 2010)
Activity calls are given as the source filed them.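 Rule for the calls: active = AC50 no more than ten times the top concentration tested, that is within one log above it; inconclusive = flat curve fit with activity between 30% and 70%, or invalid poor fit; inactive = AC50 beyond ten times the top tested dose.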

The compounds below were run on S. cerevisiae Mot1-301 ts growth rescue, BacTiter-Glo ATP luminescence (assay: growth rescue of Mot1-301 ts yeast, confirmation, SUMOylation pathway inhibitor project, whole organism, S. cerevisiae, Mot1-301 ts mutant, luminescence, dose retest (AID 463204);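 note: growth at restrictive 38.5 degrees C of Mot1-301 OY566 strain; actives raise luminescence by restoring growth of the ts mutant at high temperature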).
In the case of `CCCCN(C)C(=O)CCC(=O)Nc1ccc2nc(N3CCN(C)CC3)cc(C)c2c1`, the AC50 is reported as > 42 µM (inactive).
For `CCOC(=O)CN1NC2(CCC(C(C)(C)C)CC2)NC1=S` (stereo not drawn), the AC50 was > 42 µM (inactive).
For `Cc1ccccc1Nc1c([N+](=O)[O-])ccc2c1=NC1(CCCCC1)N=2`, the AC50 was > 42 µM (inactive).
With `O=C(NCCCN1CCOCC1)C1CCC(=O)N1CCc1ccccc1` (stereo not drawn) the AC50 was > 42 µM (inactive).
In the case of `Cc1cccc2nc3ccccc3cc12`, the AC50 is reported as > 42 µM (inactive).
For `Cc1ccc(N2C(=O)c3cccc4c(N5CCN(C)CC5)ccc(c34)C2=O)c2cccnc12`, the AC50 was > 42 µM (inactive).
For `Cc1cc(NC(=O)/C=C/c2ccco2)ccc1NC(=O)c1ccccc1`, the AC50 was > 42 µM (inactive).
For `N#Cc1cc([N+](=O)[O-])cnc1NCC(O)CO` (stereo not drawn), the AC50 was > 42 µM (inactive).
For `CC(=O)NCc1c(Cl)cccc1-n1cccc1`, the AC50 was > 42 µM (inactive).
For `CCN1C(=O)N(c2ccc(Cl)cc2)C(C)=CC1(C)C`, the AC50 was > 42 µM (inactive).
`COCc1[nH][nH]c(=O)c1C=Nc1ccc(OC(F)(F)F)cc1` was tested, and the AC50 was > 42 µM (inactive).
`O=C1CN(C(=O)COC(=O)c2ccccc2NCc2ccco2)c2ccccc2N1` was tested, and the AC50 was > 42 µM (inactive).
For `Cc1sc2nc(SCC(=O)NCCOCCO)n(C)c(=O)c2c1C`, the AC50 was > 42 µM (inactive).
With `Cc1ccc(S(=O)(=O)/N=C(/Nc2ccc([N+](=O)[O-])cc2[N+](=O)[O-])c2ccccc2)cc1` the AC50 was 15.8 µM.
`CN1C(=O)C(=Cc2ccc(N3CCCCC3)o2)C(=O)N(C)C1=S` was tested, and the AC50 was > 42 µM (inactive).
For `Cc1cnc(NC(=O)CSc2nc3ccccc3s2)s1`, the AC50 was > 42 µM (inactive).
For `COc1ccc(N2CC(C(=O)N3CCc4ccccc43)CC2=O)cc1` (stereo not drawn), the AC50 was > 42 µM (inactive).
With `COc1cc2c(cc1OC)CN(S(=O)(=O)c1cccc(F)c1)CC2` the AC50 was > 42 µM (inactive).
`CCCNC(=O)c1cc2c(C(F)(F)F)nn(C)c2s1` was tested, and the AC50 was > 42 µM (inactive).
In the case of `O=C(O)c1ccc(CNC(=O)c2ccccc2NC(=O)c2ccc([N+](=O)[O-])cc2)cc1`, the AC50 is reported as > 42 µM (inactive).
For `CN(CP(=O)(O)C(O)c1ccccc1)S(C)(=O)=O` (stereo not drawn), the AC50 was > 42 µM (inactive).
With `CNc1csc(C)c(C)c1=O` the AC50 was > 42 µM (inactive).
For `CCOc1ccc(CCNC(=O)COC(=O)c2cccc(OC)c2O)cc1OCC`, the AC50 was > 42 µM (inactive).
For `C=C(C)Cn1c(N)cc(=O)nc1SCC(=O)Nc1cccc(C(F)(F)F)c1`, the AC50 was > 42 µM (inactive).
Work on `Cc1ccc(S(=O)(=O)N2[C@@H](c3ccccc3)C(C(=O)O)=CC[C@H]2c2ccc(Cl)cc2)cc1` yielded an AC50 of 8.57 µM.
With `Cc1ccc(CC(=O)O/N=C(\N)c2cccc([N+](=O)[O-])c2)cc1` the AC50 was > 42 µM (inactive).
In the case of `N#Cc1ccc2[nH]c(CO)c(-c3ccccc3)c2c1`, the AC50 is reported as > 42 µM (inactive).
With `COc1ccccc1-n1c(O)c(/C=C2\C=Nc3ccccc32)c(=O)[nH]c1=O` the AC50 was > 42 µM (inactive).
In the case of `Cc1cc(C)cc(C(=O)NC(CC(N)=O)c2ccc(NCCN3CCOCC3)c([N+](=O)[O-])c2)c1` (stereo not drawn), the AC50 is reported as > 42 µM (inactive).
With `O=C(CSc1nnc(CNC(=O)c2ccccc2F)o1)NCCc1ccccc1` the AC50 was > 42 µM (inactive).
`CCCc1cc(=S)n2c([nH]c3ccccc32)c1C#N` was tested, and the AC50 was > 42 µM (inactive).
With `Cn1c(=O)nc2n(Cc3ccccc3)c3ccccc3cc-2c1=O` the AC50 was > 42 µM (inactive).
With `CC(=O)N1CC(=O)Nc2ccc(Cl)cc2C1c1ccccc1` (stereo not drawn) the AC50 was > 42 µM (inactive).
In the case of `Clc1cnc(Oc2ccc(Oc3ncc(Cl)cc3Cl)cc2)c(Cl)c1`, the AC50 is reported as > 42 µM (inactive).
In the case of `Fc1ccc(-c2nnc3ccc(N4CCCC4)nn23)cc1`, the AC50 is reported as > 42 µM (inactive).
In the case of `COc1ccccc1CNC(=O)C1CCC(=O)N1C(C)C` (stereo not drawn), the AC50 is reported as > 42 µM (inactive).
With `COCCCNC(=O)c1cc2cc([N+](=O)[O-])cc(OC)c2oc1=O` the AC50 was > 42 µM (inactive).
With `COc1cc2cc(C)c3nnc(SCC(=O)Nc4cc(C)on4)n3c2cc1OC` the AC50 was > 42 µM (inactive).
In the case of `Cc1ccc2c(c1)C(=O)N1[C@H]3c4ccccc4OC[C@@H]3[C@H](c3ccccc3)[C@]1(C)C(=O)N2`, the AC50 is reported as 0.86 µM.
With `c1ccc(N2CCN(C3CCSC3)CC2)cc1` (stereo not drawn) the AC50 was > 42 µM (inactive).
For `CCOc1ccccc1C(=O)N(Cc1cccs1)C1CCS(=O)(=O)C1` (stereo not drawn), the AC50 was > 42 µM (inactive).
For `C=CCOC(=O)C(C#N)c1nc2ccccc2nc1N1CCN(Cc2ccccc2)CC1` (stereo not drawn), the AC50 was > 42 µM (inactive).
In the case of `CC1(C)CC(=O)C(CC2CCCCC2=O)C(=O)C1` (stereo not drawn), the AC50 is reported as > 42 µM (inactive).
With `Cc1nc(-c2cccc(S(=O)(=O)N3CCOCC3)c2)cs1` the AC50 was > 42 µM (inactive).
`O=C1OC(Cc2ccccn2)C(O)=C1C1=NCCCN1` (stereo not drawn) was tested, and the AC50 was > 42 µM (inactive).
`CC(C)CNc1cc(=O)n(C)c(=O)n1C` was tested, and the AC50 was > 42 µM (inactive).
For `CCCNC(=O)Cn1sc2nc(C)cc(C)c2c1=O`, the AC50 was > 42 µM (inactive).
`CC(C)C(NC(=O)c1ccccc1)C(=O)NCC(c1ccccc1)N(C)C` (stereo not drawn) was tested, and the AC50 was > 42 µM (inactive).
For `Cc1ccc(C(=O)O)cc1[N+](=O)[O-]`, the AC50 was > 42 µM (inactive).
`O=C(c1ccc(CS(=O)(=O)c2ccccc2)o1)N1CCOCC1` was tested, and the AC50 was > 42 µM (inactive).
With `CCOC(=O)N1CCN(C(=O)c2ccccc2-c2ccccc2)CC1` the AC50 was > 42 µM (inactive).
In the case of `O=C(COC(=O)c1cccc(Br)c1)Nc1ccc2[nH]c(=O)[nH]c2c1`, the AC50 is reported as > 42 µM (inactive).
With `CC(C)(C)c1ccc(-c2nc(C=O)c3ccccn23)cc1` the AC50 was > 42 µM (inactive).
In the case of `Cc1ccc(Oc2ccccc2NC(=O)C2=COCCO2)cc1`, the AC50 is reported as > 42 µM (inactive).
In the case of `O=C(O)/C=C/c1cccnc1`, the AC50 is reported as > 42 µM (inactive).
With `O=[N+]([O-])c1ccccc1CN1CC=C(c2ccc(F)cc2)CC1` the AC50 was > 42 µM (inactive).
`COCCCNC(=O)c1cc(C(=O)c2c(-c3c(Cl)cccc3Cl)noc2C)c[nH]1` was tested, and the AC50 was > 42 µM (inactive).
For `O=C(CSc1nnc(CNC(=O)c2ccco2)o1)Nc1nc2ccccc2s1`, the AC50 was > 42 µM (inactive).
With `CCOc1ccc(NC(=O)CSc2nnc(Cc3csc(C)n3)o2)cc1` the AC50 was > 42 µM (inactive).
With `CS(=O)(=O)N1CCC(Oc2ccccc2C(=O)N2CCNC(=O)C2)CC1` the AC50 was > 42 µM (inactive).
With `Cc1ccc2nc3c(cc(C(=O)NCCN4CCOCC4)c(=N)n3CCCN3CCOCC3)c(=O)n2c1` the AC50 was > 42 µM (inactive).
With `O=[N+]([O-])c1cncc([N+](=O)[O-])c1Nc1ccccc1Cl` the AC50 was 9.62 µM.
In the case of `COc1ccccc1C(=O)NCCNc1ccc([N+](=O)[O-])cc1Cl`, the AC50 is reported as > 110 µM (inactive).
For `Cc1cc(C)n(-c2nc(-c3cccc(Cl)c3)cs2)n1`, the AC50 was > 42 µM (inactive).
In the case of `COC(=O)c1cccc(NC(=O)c2ccc[n+]([O-])c2)c1`, the AC50 is reported as > 42 µM (inactive).
With `CCOC(=O)C1CCN(C(=O)COc2ccc(S(=O)(=O)N3CCOCC3)cc2C)CC1` the AC50 was > 42 µM (inactive).
For `Cc1c(C)c2c(c(C)c1O)CCC(C)(C(=O)O)O2` (stereo not drawn), the AC50 was > 42 µM (inactive).
For `CCOc1ccc(Cl)cc1CNc1nnnn1CC`, the AC50 was > 42 µM (inactive).
`O=C(NCc1ccco1)C1CC(=O)N(c2ccc(Cl)cc2)C1` (stereo not drawn) was tested, and the AC50 was > 42 µM (inactive).
For `Cc1nn(CC(=O)Nc2ccccn2)c(C)c1[N+](=O)[O-]`, the AC50 was > 42 µM (inactive).
With `CC1(C)CCc2cc(CN3CCN(c4ccccn4)CC3)ccc2O1` the AC50 was > 42 µM (inactive).
With `O=C(Nc1cccc(Cl)c1)OCc1cncs1` the AC50 was > 42 µM (inactive).
`CC(=O)CSc1ncnc2sc3c(c12)CCCC3` was tested, and the AC50 was > 42 µM (inactive).
